Starred links: 1 amine or outer side, 2 acyl side, 3 side chain; linkers in the order of their positions; H or OH if unused. Positions of bridges follow the written chain, without caps; N, C: chain ends. Residues, ends and D or L forms follow the SMILES beside them. Groups on a side chain read outwards from the residue. *: point of attachment. γGlu = O=C(O)[C@H](CCC(=O)[*:2])N[*:1]; Palmitoyl = CCCCCCCCCCCCCCCC(=O)*; Isovaleryl = CC(C)CC(=O)*
Target: T1, human ferroportin (Homo sapiens, UniProt Q9NP59)
T1 construct: expressed in transfected cells
T1 sequence (Q9NP59 1-571): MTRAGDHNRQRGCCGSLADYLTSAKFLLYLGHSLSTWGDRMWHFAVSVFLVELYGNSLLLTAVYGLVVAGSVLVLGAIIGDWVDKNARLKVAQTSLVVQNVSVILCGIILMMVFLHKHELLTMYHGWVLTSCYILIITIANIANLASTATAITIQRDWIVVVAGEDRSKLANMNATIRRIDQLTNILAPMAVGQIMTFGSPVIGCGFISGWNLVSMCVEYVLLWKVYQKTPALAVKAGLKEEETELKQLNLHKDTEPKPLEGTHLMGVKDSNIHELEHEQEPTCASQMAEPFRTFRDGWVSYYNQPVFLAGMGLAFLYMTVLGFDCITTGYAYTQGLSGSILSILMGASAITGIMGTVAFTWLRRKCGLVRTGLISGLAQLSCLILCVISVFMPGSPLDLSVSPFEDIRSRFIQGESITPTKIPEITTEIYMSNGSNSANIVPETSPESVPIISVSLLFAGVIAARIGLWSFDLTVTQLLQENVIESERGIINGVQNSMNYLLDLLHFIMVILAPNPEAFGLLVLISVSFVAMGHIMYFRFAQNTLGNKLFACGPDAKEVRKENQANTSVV
Assay: Ferroportin internalization / degradation, HEK-GFP cell based assay (HEK293 cells stably expressing ferroportin-GFP, decrease in GFP fluorescence)
Conditions: Table 3 monomer analogues; ferroportin-GFP HEK293 cells, 18-24 h incubation; read-out: HEK-GFP cell based assay (potency EC50)
Procedure: Peptide analogues were tested in vitro for induction of internalization of the human ferroportin protein. Following internalization, the […] are degraded. The assay measures a decrease in fluorescence of the receptor.
The cDNA encoding the human ferroportin (SLC40A1) was cloned from a cDNA clone from Origene (NM_014585). The DNA encoding the ferroportin was amplified by PCR using primers also encoding terminal restriction sites for subcloning, but without the termination codon. The ferroportin receptor was subcloned into a mammalian GFP expression vector containing a neomycin (G418) resistance marker in such that the reading frame of the ferroportin was fused in frame with the GFP protein. The fidelity of the DNA encoding the protein was confirmed by DNA sequencing. HEK293 cells were used for transfection of the ferroportin-GFP receptor expression plasmid. The cells were grown according to standard protocol in growth medium and transfected with the plasmids using Lipofectamine (manufacturer's protocol, Invitrogen). […] The cells were propagated and frozen in aliquots.
Compound was added to desired final concentration for at least 18 hours in the incubator. […] Compound was added to desired final concentration for at least 18 hours but no more than 24 hours in the incubator.
The EC50 of these reference compounds for ferroportin degradation was determined according to the activity assay described above. These peptides served as control standards.
These values were determined as described herein.

| Structure (SMILES) | DC50 [nM] |
| --- | --- |
| CCCCCCCCCCCCCCCC(=O)N[C@@H](CCC(=O)NCCCC[C@@H]1NC(=O)[C@H](Cc2ccccc2)NC(=O)[C@H](CCCCN)NC(=O)[C@H]([C@@H](C)CC)NC(=O)[C@@H](NC(=O)[C@@H]2CCCN2C(=O)[C@H](Cc2ccccc2)NC(=O)[C@H](Cc2c[nH]cn2)NC(=O)[C@@H](NC(=O)[C@H](CC(=O)O)NC(=O)CC(C)C)[C@@H](C)O)C(C)(C)SSC(C)(C)[C@@H](C(=O)N[C@@H](CCCCN)C(N)=O)NC(=O)CNC(=O)[C@H](CCCCN)NC(=O)[C@H](CO)NC(=O)[C@H](CCCNC(=N)N)NC(=O)[C@@H]2CCCN2C1=O)C(=O)O [Compound 3, Isovaleric acid-DTHFP-[Pen]-IKF-[Lys(IsoGlu-Palm)]-PRSKG-[Pen]-K-NH2] | 418 |
| CCCCCCCCCCCCCCCC(=O)N[C@@H](CCC(=O)NCCCC[C@@H]1NC(=O)[C@H](Cc2ccccc2)NC(=O)[C@H](CCCCN)NC(=O)[C@H]([C@@H](C)CC)NC(=O)[C@@H](NC(=O)[C@@H]2CCCN2C(=O)[C@H](Cc2ccccc2)NC(=O)[C@H](Cc2c[nH]cn2)NC(=O)[C@@H](NC(=O)[C@H](CC(=O)O)NC(=O)CC(C)C)[C@@H](C)O)C(C)(C)SSC[C@@H](C(=O)N[C@@H](CCCCN)C(N)=O)NC(=O)CNC(=O)[C@H](CCCCN)NC(=O)[C@H](CO)NC(=O)[C@H](CCCNC(=N)N)NC(=O)[C@@H]2CCCN2C1=O)C(=O)O [Compound 4, Isovaleric acid-DTHFP-[Pen]-IKF-[Lys(IsoGlu-Palm)]-PRSKGCK-NH2] | 68 |
| CCCCCCCCCCCCCCCC(=O)N[C@@H](CCC(=O)NCCCC[C@@H]1NC(=O)[C@H](Cc2ccccc2)NC(=O)[C@H](CCCCN)NC(=O)[C@H]([C@@H](C)CC)NC(=O)[C@@H](NC(=O)[C@@H]2CCCN2C(=O)[C@H](Cc2ccccc2)NC(=O)[C@H](Cc2c[nH]cn2)NC(=O)[C@@H](NC(=O)[C@H](CC(=O)O)NC(=O)CC(C)C)[C@@H](C)O)CSSC(C)(C)[C@@H](C(=O)N[C@@H](CCCCN)C(N)=O)NC(=O)CNC(=O)[C@H](CCCCN)NC(=O)[C@H](CO)NC(=O)[C@H](CCCNC(=N)N)NC(=O)[C@@H]2CCCN2C1=O)C(=O)O [Compound 5] | 13 |
| CCCCCCCCCCCCCCCC(=O)N[C@@H](CCC(=O)NCCCC[C@@H]1NC(=O)[C@H](Cc2ccccc2)NC(=O)[C@H](CCCCN)NC(=O)[C@H]([C@@H](C)CC)NC(=O)[C@@H](NC(=O)[C@@H]2CCCN2C(=O)[C@H](Cc2ccccc2)NC(=O)[C@H](Cc2c[nH]cn2)NC(=O)[C@@H](NC(=O)[C@H](CC(=O)O)NC(=O)CC(C)C)[C@@H](C)O)CSSC[C@@H](C(=O)N[C@@H](CCCCN)C(N)=O)NC(=O)CN(C)C(=O)[C@H](CCCCN)NC(=O)[C@H](CO)NC(=O)[C@H](CCCNC(=N)N)NC(=O)[C@@H]2CCCN2C1=O)C(=O)O [Compound 6] | 11 |
| CCCCCCCCCCCCCCCC(=O)N[C@@H](CCC(=O)NCCCC[C@@H]1NC(=O)[C@H](Cc2ccccc2)NC(=O)[C@H](CCCCN)NC(=O)[C@H]([C@@H](C)CC)NC(=O)[C@@H](NC(=O)[C@@H]2CCCN2C(=O)[C@@H](NC(=O)[C@H](Cc2c[nH]cn2)NC(=O)[C@@H](NC(=O)[C@H](CC(=O)O)NC(=O)CC(C)C)[C@@H](C)O)C(c2ccccc2)c2ccccc2)CSSC[C@@H](C(=O)N[C@@H](CCCCN)C(N)=O)NC(=O)CNC(=O)[C@H](CCCCN)NC(=O)[C@H](CO)NC(=O)[C@H](CCCNC(=N)N)NC(=O)[C@@H]2CCCN2C1=O)C(=O)O [Compound 7, Isovaleric acid-DTH-[Dpa]-PCIKF-[Lys(IsoGlu-Palm)]-PRSKGCK-NH2] | 12 |

The remaining lines, values ahead:

| DC50 [nM] | Structure (SMILES) |
| --- | --- |
| 15 | CCCCCCCCCCCCCCCC(=O)N[C@@H](CCC(=O)NCCCC[C@@H]1NC(=O)[C@H](Cc2ccccc2)NC(=O)[C@H](CCCCN)NC(=O)[C@H]([C@@H](C)CC)NC(=O)[C@@H](NC(=O)[C@@H]2CCCN2C(=O)[C@@H](NC(=O)[C@H](Cc2c[nH]cn2)NC(=O)[C@@H](NC(=O)[C@H](CC(=O)O)NC(=O)CC(C)C)[C@@H](C)O)C(c2ccccc2)c2ccccc2)CSSC[C@@H](C(=O)N[C@@H](CCCCN)C(N)=O)NC(=O)CN(C)C(=O)[C@H](CCCCN)NC(=O)[C@H](CO)NC(=O)[C@H](CCCNC(=N)N)NC(=O)[C@@H]2CCCN2C1=O)C(=O)O [Compound 8, Isovaleric acid-DTH-[Dpa]-PCIKF-[Lys(IsoGlu-Palm)]-PRSK-[Sar]-CK-NH2] |
| 11 | CCCCCCCCCCCCCCCC(=O)N[C@@H](CCC(=O)NCCCC[C@@H]1NC(=O)[C@H](Cc2ccccc2)NC(=O)[C@H](CCCCN)NC(=O)[C@H]([C@@H](C)CC)NC(=O)[C@@H](NC(=O)[C@@H]2CCCN2C(=O)[C@H](Cc2ccccc2)NC(=O)[C@H](Cc2c[nH]cn2)NC(=O)[C@@H](NC(=O)[C@H](CC(=O)O)NC(=O)CC(C)C)[C@@H](C)O)CSSC[C@@H](C(N)=O)NC(=O)CNC(=O)[C@H](CCCCN)NC(=O)[C@H](CO)NC(=O)[C@H](CCCNC(=N)N)NC(=O)[C@@H]2CCCN2C1=O)C(=O)O [Compound 9] |
| 10 | CCCCCCCCCCCCCCCC(=O)N[C@@H](CCC(=O)NCCCC[C@@H]1NC(=O)[C@H](Cc2ccccc2)NC(=O)[C@H](CCCCN)NC(=O)[C@H]([C@@H](C)CC)NC(=O)[C@@H](NC(=O)[C@@H]2CCCN2C(=O)[C@H](Cc2ccccc2)NC(=O)[C@H](Cc2c[nH]cn2)NC(=O)[C@@H](NC(=O)[C@H](CC(=O)O)NC(=O)CC(C)C)[C@@H](C)O)CSSC[C@@H](C(N)=O)NC(=O)CN(C)C(=O)[C@H](CCCCN)NC(=O)[C@H](CO)NC(=O)[C@H](CCCNC(=N)N)NC(=O)[C@@H]2CCCN2C1=O)C(=O)O [Compound 10] |
| 22 | CCCCCCCCCCCCCCCC(=O)N[C@@H](CCC(=O)NCCCC[C@@H]1NC(=O)[C@H](Cc2ccccc2)NC(=O)[C@H](CCCCN)NC(=O)[C@H](CCCCN)NC(=O)[C@@H](NC(=O)[C@@H]2CCCN2C(=O)[C@H](Cc2ccccc2)NC(=O)[C@H](Cc2c[nH]cn2)NC(=O)[C@@H](NC(=O)[C@H](CC(=O)O)NC(=O)CC(C)C)[C@@H](C)O)CSSC[C@@H](C(=O)N[C@@H](CCCCN)C(N)=O)NC(=O)CNC(=O)[C@H](CCCCN)NC(=O)[C@H](CO)NC(=O)[C@H](CCCNC(=N)N)NC(=O)[C@@H]2CCCN2C1=O)C(=O)O [Compound 11] (Isovaleryl-DTHFPCKKFK([γGlu-Palmitoyl])PRSKGCK-NH2; disulfide 6-16) |
| 14 | CCCCCCCCCCCC(=O)N[C@@H](CCC(=O)NCCCC[C@@H]1NC(=O)[C@H](Cc2ccccc2)NC(=O)[C@H](CCCCN)NC(=O)[C@H]([C@@H](C)CC)NC(=O)[C@@H](NC(=O)[C@@H]2CCCN2C(=O)[C@H](Cc2ccccc2)NC(=O)[C@H](Cc2c[nH]cn2)NC(=O)[C@@H](NC(=O)[C@H](CC(=O)O)NC(=O)CC(C)C)[C@@H](C)O)CSSC[C@@H](C(=O)N[C@@H](CCCCN)C(N)=O)NC(=O)CNC(=O)[C@H](CCCCN)NC(=O)[C@H](CO)NC(=O)[C@H](CCCNC(=N)N)NC(=O)[C@@H]2CCCN2C1=O)C(=O)O [Compound 12] |
| 10 | CCCCCCCCCCCCCC(=O)N[C@@H](CCC(=O)NCCCC[C@@H]1NC(=O)[C@H](Cc2ccccc2)NC(=O)[C@H](CCCCN)NC(=O)[C@H]([C@@H](C)CC)NC(=O)[C@@H](NC(=O)[C@@H]2CCCN2C(=O)[C@H](Cc2ccccc2)NC(=O)[C@H](Cc2c[nH]cn2)NC(=O)[C@@H](NC(=O)[C@H](CC(=O)O)NC(=O)CC(C)C)[C@@H](C)O)CSSC[C@@H](C(=O)N[C@@H](CCCCN)C(N)=O)NC(=O)CNC(=O)[C@H](CCCCN)NC(=O)[C@H](CO)NC(=O)[C@H](CCCNC(=N)N)NC(=O)[C@@H]2CCCN2C1=O)C(=O)O [Compound 13] |
| 29 | CC[C@H](C)[C@@H]1NC(=O)[C@@H](NC(=O)[C@@H]2CCCN2C(=O)[C@H](Cc2ccccc2)NC(=O)[C@H](Cc2c[nH]cn2)NC(=O)[C@@H](NC(=O)[C@H](CC(=O)O)NC(=O)CC(C)C)[C@@H](C)O)CSSC[C@@H](C(=O)N[C@@H](CCCCN)C(N)=O)NC(=O)CNC(=O)[C@H](CCCCN)NC(=O)[C@H](CO)NC(=O)[C@H](CCCNC(=N)N)NC(=O)[C@@H]2CCCN2C(=O)[C@H](CCCCNC(=O)CC[C@H](NC(=O)CCCC[C@@H]2SC[C@@H]3NC(=O)N[C@@H]32)C(=O)O)NC(=O)[C@H](Cc2ccccc2)NC(=O)[C@H](CCCCN)NC1=O [Compound 14] |
| 26 | CC[C@H](C)[C@@H]1NC(=O)[C@@H](NC(=O)[C@@H]2CCCN2C(=O)[C@H](Cc2ccccc2)NC(=O)[C@H](Cc2c[nH]cn2)NC(=O)[C@@H](NC(=O)[C@H](CC(=O)O)NC(=O)CC(C)C)[C@@H](C)O)CSSC[C@@H](C(=O)N[C@@H](CCCCN)C(N)=O)NC(=O)CNC(=O)[C@H](CCCCN)NC(=O)[C@H](CO)NC(=O)[C@H](CCCNC(=N)N)NC(=O)[C@@H]2CCCN2C(=O)[C@H](CCCCNC(=O)CC[C@H](NC(=O)CC(C)C)C(=O)O)NC(=O)[C@H](Cc2ccccc2)NC(=O)[C@H](CCCCN)NC1=O [Compound 15] |

Reference: patent publication US11472842B2 (Protagonist Therapeutics, Inc., priority 2015, dated 2022)
